Data as given in patent US20250345277A1, “Ionizable Liposome, Preparation Thereof, and Application Thereof in Gene Delivery” (MAXIRNA (ZHEJIANG) TECHNOLOGY CO. LTD., priority 2021, published 2025).

Experiments:
[1] = Entrapment efficiency of LNP preparation encapsulating EGFP mRNA; type: physicochemical; conditions: LNP ionizable lipid/DOPE/cholesterol/DSPE-PEG2000 35/16/46.5/2.5 mol% encapsulating EGFP mRNA
Description: The ionizable lipid compound of Example 1 was dissolved in ethanol with DOPE, cholesterol and DSPE-PEG2000 (all purchased from AVT (Shanghai) Pharmaceutical Technology Co., Ltd.) at a molar ratio of 35:16:46.5:2.5 to prepare ethanol lipid solution, and enhanced green fluorescent protein (EGFP) mRNAs (Shanghai Maximna Pharmaceutical Engineering Co., Ltd., JN-4201) were diluted in 20 mM citrate buffer (pH=6.1) to obtain mRNA aqueous solution. Ethanol lipid solution and mRNA aqueous solution were mixed at a volume ratio of 1:3 by using a microfluidic device (Micro&Nano (Shanghai) Instrument Technology Co., Ltd., model: INano™ML), LNPs were prepared with a weight ratio of approximately 10:1 between total lipids and mRNAs. The medium was replaced by ultrafiltration, ethanol was removed and volumed with DPBS. Finally, the lipid nanoparticles were filtered through a 0.2 μm sterile filter to obtain a LNP formulation encapsulating eGFP mRNA using ionizable lipid/DOPE/cholesterol/DSPE-PEG2000 (35/16/46.5/2.5 mol %), the concentration of mRNAs being 0.002 mg/mL-0.5 mg/mL. […]

[2] = Size and polydispersity index PDI of lipid nanoparticles (Malvern Zetasizer Nano ZS); type: physicochemical; conditions: LNP ionizable lipid/DOPE/cholesterol/DSPE-PEG2000 35/16/46.5/2.5 mol% encapsulating EGFP mRNA; for Particle Size: in nm (unit assumed)
Description: The ionizable lipid compound of Example 1 was dissolved in ethanol with DOPE, cholesterol and DSPE-PEG2000 (all purchased from AVT (Shanghai) Pharmaceutical Technology Co., Ltd.) at a molar ratio of 35:16:46.5:2.5 to prepare ethanol lipid solution, and enhanced green fluorescent protein (EGFP) mRNAs (Shanghai Maximna Pharmaceutical Engineering Co., Ltd., JN-4201) were diluted in 20 mM citrate buffer (pH=6.1) to obtain mRNA aqueous solution. Ethanol lipid solution and mRNA aqueous solution were mixed at a volume ratio of 1:3 by using a microfluidic device (Micro&Nano (Shanghai) Instrument Technology Co., Ltd., model: INano™ML), LNPs were prepared with a weight ratio of approximately 10:1 between total lipids and mRNAs. The medium was replaced by ultrafiltration, ethanol was removed and volumed with DPBS. Finally, the lipid nanoparticles were filtered through a 0.2 μm sterile filter to obtain a LNP formulation encapsulating eGFP mRNA using ionizable lipid/DOPE/cholesterol/DSPE-PEG2000 (35/16/46.5/2.5 mol %), the concentration of mRNAs being 0.002 mg/mL-0.5 mg/mL.
Using Malvern Zetasizer Nano ZS (Malvern UK), the size and polydispersity index PDI of lipid nanoparticles were measured at […].

DC2.4 cells = assay: In vitro transfection of DC2.4 cells with EGFP mRNA LNP preparation (flow cytometry); type: cell-based, mouse; conditions: DC2.4 cells; for Cell Viability / Positive Rate (EGFP): EGFP mRNA LNP, 200 ng mRNA per well, flow cytometry; for Fluorescence Intensity: EGFP mRNA expression level, normalized based on the sample with the highest fluorescence intensity
Source text: The description is based on peripheral blood mononuclear cells PBMC (Shanghai Oribiotech Co., Ltd.), human peripheral blood leukemia T cell Jurkat (ATCC), tumor infiltrating lymphocyte TIL (isolated from resected tumor tissue of a liver cancer patient, the preparation method refers to CN114763530A), mouse bone marrow-derived dendritic cells DC2.4 (Cell Bank of the Chinese Academy of Sciences), and Chinese hamster ovary cells CHO (ATCC) were used as verified cell lines for liposome transfection. PBMC, Jurkat, and TIL cells grew in suspension, while DC2.4 and CHO cells grew by adherent culture. All the operation steps of cell culture must strictly abide by the prescribed procedures, and sterile reagents is used to perform aseptic operations under a sterile workbench. The main steps are as follows: • 1) Cell recovery: the preserved cell cryopreservation solution was taken out of the −80° C. refrigerator, and was immediately put in a 37° C. water bath for rapid and continuous shaking, and was completely melted within one minute. Fresh medium was added to the 15 mL centrifuge tube in advance, and the cell solution was added to the centrifuge tube in a biological safety cabinet. A centrifuge tube of the same quality was taken and placed symmetrically in a centrifuge, centrifuged at a low speed at 1200 rpm for 5 min. After centrifugation, the supernatant was removed, and an appropriate amount of medium was slowly added along the tube wall. After the cells were evenly dispersed by blowing gently, the cell suspension was pipette and added to the culture bottle prepared in advance. The state and distribution of the cells in the early stage of recovery were observed under a microscope. The culture bottle was placed in a 5% CO2 incubator and incubated at 37° C., and the recovery time was recorded. • 2) Cell subculture: Under the microscope, if the cell density in the field of view reaches 80%-90%, the cells can be subcultured. Adherent cells need to be digested with trypsin. In order to avoid the residual serum in the culture medium to reduce the activity of trypsin, DPBS solution was added to wash once after removing the original culture medium. After remove the DPBS solution, trypsin was added to degrade the protein at the junction between cells. This separates the cells for further culture. The cells were gently shaked evenly and put into the incubator for digestion for 2 min. Immediately after the digestion was completed, an appropriate amount of medium was added to the original petri dish to terminate the digestion. Finally, the cells were carefully blowed off using a pipette and blowed until they are evenly dispersed, and then inoculated and subcultured at a certain ratio according to the experimental requirements. […]
• 1) DC2.4 cells recovery: the frozen DC2.4 cells were taken out from the −80° C. refrigerator, put in a 37° C. water bath to quickly thaw the cells, added to the preheated medium after thawing, centrifuged at 1200 rpm for 5 min, the supernatant was discarded, and an appropriate amount of DMEM medium with 10% FBS was added to resuspend the recovered DC2.4, and placed in a 5% CO2 incubator at 37° C. for activation and culture. • 2) According to the experimental arrangement, DC2.4 cells were plated on a 24-well plate one day in advance for cell transfection. Through cell counting, the number of cells and cell viability were recorded, the cell suspension were taken at 2×10^5 cells per well, then a certain volume of DMEM medium containing 10% FBS was added and mixed evenly, 1 mL of mixture was added to each well for subsequent transfection experiment. • 3) After 24 hours, the medium was gently removed 30 minutes in advance by a pipette, 1 mL DPBS was added to each well for washing and then removed, then 300 μL serum-free Opti-MEM medium was added to each well for subsequent transfection experiments.
Subsequent steps are the same as the transfection protocol for PBMC cells. […]

Structure (SMILES)	Entrapment Efficiency [1] [%]	PDI [2]	Particle Size [2]	Cell Viability (DC2.4 cells) [%]	Positive Rate (EGFP) (DC2.4 cells) [%]	Fluorescence Intensity (DC2.4 cells)
CCCCCCCCCCCCC(O)CN(CCOCCN(CCOCCN(CC(O)CCCCCCCCCCCC)CC(O)CCCCCCCCCCCC)CCN1CCN(CCO)CC1)CC(O)CCCCCCCCCCCC (stereo not drawn) [J-C14]	83.58	0.121	126.1	>99.0	59.1	0.06
CCCCCCCCCCCCCCC(O)CN(CCOCCN(CCOCCN(CC(O)CCCCCCCCCCCCCC)CC(O)CCCCCCCCCCCCCC)CCN1CCN(CCO)CC1)CC(O)CCCCCCCCCCCCCC (stereo not drawn) [J-C16]	81.08	0.077	104.1	85.2	62.0	0.04
CCCCCCCCCCCCCCCCC(O)CN(CCOCCN(CCOCCN(CC(O)CCCCCCCCCCCCCCCC)CC(O)CCCCCCCCCCCCCCCC)CCN1CCN(CCO)CC1)CC(O)CCCCCCCCCCCCCCCC (stereo not drawn) [J-C18]	88.56	0.163	93.7	83.6	60.9	0.04
CCCCCCCCCCC(O)CN(CCOCCOCCN(CCOCCOCCN(CC(O)CCCCCCCCCC)CC(O)CCCCCCCCCC)CCN1CCN(CCO)CC1)CC(O)CCCCCCCCCC (stereo not drawn) [K-C12]	92.83	0.075	75.9	>99.0	62.8	0.07
CCCCCCCCCCCCC(O)CN(CCOCCOCCN(CCOCCOCCN(CC(O)CCCCCCCCCCCC)CC(O)CCCCCCCCCCCC)CCN1CCN(CCO)CC1)CC(O)CCCCCCCCCCCC (stereo not drawn) [K-C14]	87.00	0.155	122.7	82.3	59.8	0.03
CCCCCCCCCCCCCCC(O)CN(CCOCCOCCN(CCOCCOCCN(CC(O)CCCCCCCCCCCCCC)CC(O)CCCCCCCCCCCCCC)CCN1CCN(CCO)CC1)CC(O)CCCCCCCCCCCCCC (stereo not drawn) [K-C16]	95.74	0.185	76.0	93.4	60.2	0.04
CCCCCCCCCCCCCCCCC(O)CN(CCOCCOCCN(CCOCCOCCN(CC(O)CCCCCCCCCCCCCCCC)CC(O)CCCCCCCCCCCCCCCC)CCN1CCN(CCO)CC1)CC(O)CCCCCCCCCCCCCCCC (stereo not drawn) [K-C18]	92.77	0.134	124.2	>99.0	74.7	0.05
CCCCCCCCCCC(O)CN(CCOCCOCCOCCN(CCOCCOCCOCCN(CC(O)CCCCCCCCCC)CC(O)CCCCCCCCCC)CCN1CCN(CCO)CC1)CC(O)CCCCCCCCCC [L-C12]	93.38	0.181	88.4	84.9	58.1	0.07
CCCCCCCCCCCCC(O)CN(CCOCCOCCOCCN(CCOCCOCCOCCN(CC(O)CCCCCCCCCCCC)CC(O)CCCCCCCCCCCC)CCN1CCN(CCO)CC1)CC(O)CCCCCCCCCCCC [L-C14]	91.54	0.126	101.5	99.0	60.0	0.04
CCCCCCCCCCCCCCC(O)CN(CCOCCOCCOCCN(CCOCCOCCOCCN(CC(O)CCCCCCCCCCCCCC)CC(O)CCCCCCCCCCCCCC)CCN1CCN(CCO)CC1)CC(O)CCCCCCCCCCCCCC [L-C16]	92.34	0.085	111.5	97.2	64.8	0.06
CCCCCCCCCCCCCCCCC(O)CN(CCOCCOCCOCCN(CCOCCOCCOCCN(CC(O)CCCCCCCCCCCCCCCC)CC(O)CCCCCCCCCCCCCCCC)CCN1CCN(CCO)CC1)CC(O)CCCCCCCCCCCCCCCC [L-C18]	91.70	0.182	124.0	98.6	59.7	0.02
